The record followed here is PubChem BioAssay (NCI).

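Interpolation was linear, between the two tested concentrations surrounding the appropriate level; five concentrations were tested over 48 hours in 96-well plates. TGI is the concentration that stops growth completely.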 Where a SMILES comes first, the peptide text is derived from it. The star is where a group is joined. OSu = O=C1CCC(=O)N1O*

Test systems include ACHN renal; A498 renal; HCC-2998 colon; PC-3 prostate; HCT-116 colon; HOP-62 NSCLC; MDA-N; UACC-62 melanoma; HCT-15 colon; MOLT-4 leukemia.
What all share (assay): NCI-60 cell line screen, 48 h

With `N#CSC#CCCC#CSC#N`, the TGI with ACHN renal was 31.4 µM; with A498 renal, 37.7 µM; in the assay with HCC-2998 colon it was 34.3 µM; in the assay on PC-3 prostate it was 48.3 µM; with HCT-116 colon, 48.5 µM; in the assay with HOP-62 NSCLC, 33.7 µM. In addition, the TGI in the assay with MDA-N was determined as 34.8 µM; in the assay with UACC-62 melanoma, 31.8 µM; in the assay on HCT-15 colon, 34.8 µM; with MOLT-4 leukemia, 6.92 µM.

On to `O=c1[nH]c(=O)c2c3n(cc2[nH]1)CCCCC3`, for which the TGI with ACHN renal, in the assay on A498 renal, with HCC-2998 colon, in the assay on PC-3 prostate, in the assay on HCT-116 colon and in the assay on HOP-62 NSCLC was more than 100 µM each time. Moreover, the TGI in the assay with MDA-N, in the assay with UACC-62 melanoma, in the assay on HCT-15 colon and with MOLT-4 leukemia was more than 100 µM in each case.

As to `NCCCCC(NC(=O)C(N)Cc1ccc(O)cc1)C(=O)NC(CCCCN)C(=O)NC(CCCCN)C(=O)ON1C(=O)CCC1=O` (stereo not given) (H-YKKK-OSu; configuration not given here), the TGI in the assay with ACHN renal, in the assay on A498 renal, in the assay on HCC-2998 colon, in the assay on PC-3 prostate, in the assay with HCT-116 colon and with HOP-62 NSCLC was more than 100 µM each time. Moreover, the TGI in the assay with MDA-N, with UACC-62 melanoma, with HCT-15 colon and in the assay on MOLT-4 leukemia was more than 100 µM in each case.

For `CCN(CC)CCCNC(=O)c1cc(-c2nccn2C)nc2ccccc12`, the TGI with ACHN renal, in the assay on A498 renal, in the assay with HCC-2998 colon, in the assay with PC-3 prostate, in the assay with HCT-116 colon and in the assay with HOP-62 NSCLC was more than 100 µM throughout. Further, the TGI in the assay on MDA-N, in the assay on UACC-62 melanoma, with HCT-15 colon and with MOLT-4 leukemia was more than 100 µM throughout.

Regarding `COc1ccc(C(C)NNC(=O)c2ccncc2)cc1OC` (stereo not given), the TGI in the assay on ACHN renal, in the assay on A498 renal, with HCC-2998 colon, in the assay with PC-3 prostate, in the assay with HCT-116 colon and in the assay on HOP-62 NSCLC was more than 100 µM in each case. In addition, the TGI with MDA-N, in the assay on UACC-62 melanoma, in the assay with HCT-15 colon and in the assay on MOLT-4 leukemia was more than 100 µM each time.

As to `CCOC(=O)c1cn2c(n1)sc1cc(F)ccc12`, the TGI in the assay on ACHN renal, with A498 renal, with HCC-2998 colon, in the assay with PC-3 prostate, in the assay with HCT-116 colon and in the assay with HOP-62 NSCLC was more than 100 µM in each case. Besides, the TGI with MDA-N, in the assay with UACC-62 melanoma, with HCT-15 colon and with MOLT-4 leukemia was more than 100 µM each time.

`Cc1nn(C(=O)Cc2ccccc2)c2c1C(c1ccccc1)SC(N)=N2` (stereo not given): the TGI in the assay on ACHN renal, in the assay with A498 renal, in the assay with HCC-2998 colon, in the assay with PC-3 prostate, in the assay on HCT-116 colon and in the assay on HOP-62 NSCLC was more than 100 µM each time. For the same molecule, the TGI with MDA-N, in the assay with UACC-62 melanoma, with HCT-15 colon and with MOLT-4 leukemia was more than 100 µM each time.

In the case of `C=C1C(=O)O[C@@H]2/C=C(C)/C=C\[C@@H]3O[C@@]3(C)C[C@@H](O)C12` (stereo not given in full), the TGI with ACHN renal is 18.3 µM; with A498 renal, 30.4 µM; in the assay on HCC-2998 colon it was 33.1 µM; in the assay with PC-3 prostate it was 73.2 µM; in the assay on HCT-116 colon it was 20.6 µM; in the assay with HOP-62 NSCLC, more than 100 µM. Also, the TGI is more than 100 µM in the assay with MDA-N, 27.2 µM in the assay with UACC-62 melanoma, 27.6 µM in the assay with HCT-15 colon and 30.1 µM with MOLT-4 leukemia.

For `O=[N+]([O-])c1ccc2nc(Nc3ccccc3)c(Nc3ccccc3)nc2c1`, the TGI with ACHN renal came to 3.11 µM; in the assay with A498 renal it was 11.6 µM; in the assay on HCC-2998 colon, 2.65 µM; with PC-3 prostate it was 10.3 µM; with HCT-116 colon, 1.82 µM; with HOP-62 NSCLC, 2.45 µM. Moreover, the TGI in the assay with MDA-N was 2.23 µM; in the assay with UACC-62 melanoma it was 2.23 µM; with HCT-15 colon, 2.18 µM; in the assay with MOLT-4 leukemia, more than 100 µM.

As for `CC(C)(CN1CCCCC1)C(/C=C/c1ccc(Cl)cc1)=N\NC(=O)N/N=C(/C=C/c1ccc(Cl)cc1)C(C)(C)CN1CCCCC1`, the TGI with ACHN renal is 15 µM; in the assay on A498 renal, 20.4 µM; in the assay with HCC-2998 colon it was 16.3 µM; in the assay on PC-3 prostate, 19.7 µM; with HCT-116 colon it was 12.5 µM; in the assay with HOP-62 NSCLC, 14.2 µM. In addition, the TGI in the assay on MDA-N is 10.7 µM; in the assay with UACC-62 melanoma, 12.1 µM; with HCT-15 colon it was 7.99 µM; in the assay on MOLT-4 leukemia, 9.97 µM.

Take `O=c1c(F)cn(Cc2c(Cl)cccc2Cl)c(=O)n1Cc1c(Cl)cccc1Cl`: the TGI in the assay on ACHN renal, with A498 renal, with HCC-2998 colon, with PC-3 prostate, in the assay with HCT-116 colon and in the assay with HOP-62 NSCLC was more than 31.6 µM throughout. In addition, the TGI in the assay with MDA-N, in the assay on UACC-62 melanoma, in the assay on HCT-15 colon and in the assay with MOLT-4 leukemia was more than 31.6 µM throughout.

Turning to `COC(=O)c1ccc(Cc2cc(Cc3ccc(C(=O)OC)cc3)cc(Cc3ccc(C(=O)OC)cc3)c2)cc1`, the TGI in the assay with ACHN renal, in the assay on A498 renal, in the assay on HCC-2998 colon, in the assay on PC-3 prostate, with HCT-116 colon and in the assay on HOP-62 NSCLC was more than 25 µM throughout. Moreover, the TGI with MDA-N, in the assay on UACC-62 melanoma, in the assay with HCT-15 colon and in the assay on MOLT-4 leukemia was more than 25 µM in each case.

In the case of `CSC(=O)c1sc(SC)[n+](-c2ccccc2)c1O`, the TGI in the assay on ACHN renal was more than 100 µM; with A498 renal it was more than 100 µM; in the assay with HCC-2998 colon it was 44.8 µM; with PC-3 prostate, 29.8 µM; in the assay with HCT-116 colon, 32.6 µM; with HOP-62 NSCLC, 32.1 µM. The TGI came to 37.1 µM in the assay on MDA-N, 29.7 µM in the assay with UACC-62 melanoma, 54.3 µM in the assay with HCT-15 colon and 41.4 µM in the assay on MOLT-4 leukemia.

On to `COc1ccc(C2=CC(C(C)=C(C(N)=O)C(N)=O)C=C(c3ccc(Br)cc3)C2)c(OC)c1` (stereo not given), for which the TGI in the assay with ACHN renal, in the assay on A498 renal, in the assay with HCC-2998 colon, with PC-3 prostate, in the assay on HCT-116 colon and in the assay with HOP-62 NSCLC was more than 100 µM throughout. Besides, the TGI with MDA-N, in the assay on UACC-62 melanoma, with HCT-15 colon and with MOLT-4 leukemia was more than 100 µM each time.
